Here are results for two compounds from patent US9833495B2, “Oral treatment of inflammatory bowel disease” (Defensin Therapeutics ApS, priority 2011, dated 2017).

This series deals with DSS-induced colitis in male C57BL/6 mice. Kind of series: 10-Day Dextran Sodium Sulphate (DSS)-induced colitis model in the mouse. Type of series: in vivo. The settings on record: for additional DAI score without change in body weight (only stool consistency and rectal bleeding): oral, 10-day treatment. The text has this: 10-Day Dextran Sodium Sulphate (DSS)-Induced Colitis Model in the Mouse
The aim of the following study was to determine the anti-inflammatory activity of human beta defensin 2 in an acute (10-days) model of inflammatory bowel disease (colitis) induced by oral dextran sodium sulphate (DSS) administration in the mouse.
Study design: animals were divided into 5 experimental groups. Each group consisted of 10 males: Group A: Treated with Control vehicle (PBS) p.o. twice daily. Group B: Treated with methylprednisolone (1 mg/kg p.o. twice daily). Group C: Treated with hBD2 (0.05 mg/kg p.o. twice daily). Group D: Treated with hBD2 (0.5 mg/kg p.o. daily). Group E: Treated with hBD2 (5 mg/kg p.o. […]). Animal allocation to all experimental groups was done in a randomized manner. A maximum of 5 mice were housed in each cage (as per Directive 86/609/EEC). All animals were weighed on their arrival at the laboratory and prior to the administration of the test items.
The control vehicle and hBD2 were administered orally with the use of a sterile cannula in a dosing volume of 10 ml/kg body weith. The animals of all groups received 2 doses daily (at 9.00 h and 17.00 h) of the corresponding test item (test, reference or vehicle) for 10 consecutive days (experimental days 1-10).
Colitis was induced in mice by supplementing their drinking water with DSS 2% for 7 days. On Day 1 all mice were weighed and marked according to their experimental groups. The drinking bottle of each cage was filled with the DSS solution, making sure all bottle lids were mounted properly and that none were congested. On Day 3 any remaining solution in the bottles was emptied and refilled with fresh DSS solution. This procedure was repeated again on Day 5. On Day 8 any remaining solution was discarded and replaced with autoclaved water. Animals were sacrificed 2 days later on Day 10.
Daily clinical assessment of DSS-treated animals was carried out, with the calculation of a validated clinical Disease Activity Index (DAI) ranging from 0 to 4 according to the following parameters: stool consistency, presence or absence of rectal bleeding and weight loss:
Bodyweight loss was calculated as the percent difference between the original bodyweight (Day 1) and the actual bodyweight on each experimental day (2-10). The appearance of diarrhoea is defined as mucus/faecal material adherent to anal fur. Rectal bleeding is defined as diarrhoea containing visible blood/mucus or gross rectal bleeding. The maximum score of the DAI each day is 12.
On day 10, two hours after the last administration of control vehicle, hBD2 or prednisolone, the animals were killed by an overdose of anaesthetic. Their colons were removed and their length and weight measured after exclusion of the caecum. Two sections (proximal and distal) of colon were taken from each animal and preserved in neutral buffered formalin for subsequent histological analysis (haematoxylin and eosin staining) according to the following scoring system:
Description Score: No changes observed (0). Minimal scattered mucosal inflammatory cell infiltrates, with or without minimal epithelial hyperplasia (1). Mild scattered to diffuse inflammatory cell infiltrates, sometimes extending into the submucosa and associated with erosions, with minimal to mild epithelial hyperplasia and minimal to mild mucin depletion from goblet cells (2). Mild to moderate inflammatory cell infiltrates that were sometimes transmural, often associated with ulceration, with moderate epithelial hyperplasia and mucin depletion (3). Marked inflammatory cell infiltrates that were often transmural and associated with ulceration, with marked epithelial hyperplasia and mucin depletion (4). Marked transmural inflammation with severe ulceration and loss of intestinal glands (5). […]

Setting [1] is: 1 mg/kg p.o. twice daily (Group B), day 10.

For `C[C@H]1C[C@@H]2[C@H]([C@@H](O)C[C@@]3(C)[C@H]2CC[C@]3(O)C(=O)COC(=O)CCC(=O)O)[C@@]2(C)C=CC(=O)C=C12` [Methylprednisolone 21-hemisuccinate, reference compound], the “additional DAI score without change in body weight (only stool consistency and rectal bleeding)” value is given as “very significant anti-inflammatory activity”. Moreover, under setting [1], the “histological injury induced by DSS in the distal colon” value is “significantly reduced” and the “histological injury induced by DSS in the proximal colon” value was “significantly reduced”. Where the note is “group B, from day 2 until the end of the study”, the body weight result is recorded as “significant decrease”. Besides, the “effect on disease activity index (DAI) vs vehicle” value (reference item, 1 mg/kg p.o. twice daily) is “significant inhibition”.

As for “Human beta defensin 2 (GIGDPVTCLKSGAICHPVFCPRRYKQIGTCGLPGTKCCKKP; mat_peptide; listed as Homo sapiens) [NZ39000]”, the “additional DAI score without change in body weight (only stool consistency and rectal bleeding)” value is “very significant anti-inflammatory activity”. Also, the “severity of disease parameters” value (10-Day DSS-induced colitis model in the mouse) is reported as “significantly reduce”. Further, the “Disease Activity Index (DAI)” value (hBD2 0.05 mg/kg p.o., Day 10, mean ± SEM, n=10, P < 0.05 vs vehicle) was determined as 8 ± 0.73. In addition, under “high dose of test item, day 10 (P<0.05)”, the “body weight vs control group” value is “significant increase”. Moreover, the “histological damage score of proximal and distal colons” value (orally administered, day 10) is “very significant reduction”. Also, the “effect on disease activity index (DAI) vs vehicle” value (three dose levels (0.05, 0.5, 5 mg/kg) via the oral route) is listed as “significant inhibition”. The “histological damage in the proximal colon” value (twice daily, at 3 dose levels, p.o., day 10) is on record as “significant reduction”. Moreover, the “histological damage in the distal colon” value (twice daily, intermediate and high dose levels, p.o., day 10) is recorded as “significant reduction”.
